# Data: patent US12559529B2, “NPY2 receptor agonists” (Boehringer Ingelheim International GmbH, priority 2019, dated 2026)
# Biological target: T1, Human Neuropeptide Y2 Receptor (Homo sapiens, UniProt P49146)
# T1 construct: purchased CHEMICON HTS066M
# T1 sequence (P49146 1-381): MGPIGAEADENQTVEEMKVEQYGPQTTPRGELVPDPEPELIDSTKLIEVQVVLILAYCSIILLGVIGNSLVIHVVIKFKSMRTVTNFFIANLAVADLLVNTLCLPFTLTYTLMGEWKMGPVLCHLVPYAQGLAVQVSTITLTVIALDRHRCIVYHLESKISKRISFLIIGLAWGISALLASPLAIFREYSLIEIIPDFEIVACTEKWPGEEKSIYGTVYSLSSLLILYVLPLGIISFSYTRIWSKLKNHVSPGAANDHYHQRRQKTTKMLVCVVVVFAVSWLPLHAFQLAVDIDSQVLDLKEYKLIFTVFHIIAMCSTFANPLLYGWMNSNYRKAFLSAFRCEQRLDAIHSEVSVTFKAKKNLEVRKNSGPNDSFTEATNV
# Test: Radioligand binding competition assay (RLB)
# Details: Table 3; human 125I-PYY (1-36) 0.02 nM, Y2 receptor membranes; read-out: Ki
# In short: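 Membranes (0.5 μg/well) and test peptides, serially diluted from 1 mM DMSO stocks, were incubated 2 hours at room temperature in HEPES buffer pH 7.4 with Mg, Ca and ovalbumin.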
row,Structure (SMILES),Ki [nM]
1,"CC(C)CC(=O)N[C@@H](C)C(=O)N1CCC[C@H]1C(=O)N[C@@H](CCC(=O)O)C(=O)N[C@@H](CCCCNC(=O)COCCOCCNC(=O)COCCOCCNC(=O)CC[C@H](NC(=O)CCCCCCCCCCCCCCCCC(=O)O)C(=O)O)C(=O)N1CCC[C@H]1C(=O)N[C@@H](CCC(=O)O)C(=O)N[C@@H](CCC(=O)O)C(=O)N[C@@H](CCC(=O)O)C(=O)N[C@@H](C)C(=O)N[C@@H](CCC(=O)O)C(=O)N1CCC[C@H]1C(=O)N[C@@H](CCC(=O)O)C(=O)N[C@@H](CCC(=O)O)C(=O)N[C@@H](CC(C)C)C(=O)N[C@@H](CCC(N)=O)C(=O)N[C@@H](CCCNC(=N)N)C(=O)N[C@@H](Cc1ccc(O)cc1)C(=O)N[C@@H](Cc1ccc(O)cc1)C(=O)N[C@H](C(=O)N[C@@H](CO)C(=O)N[C@@H](CC(C)C)C(=O)N[C@@H](CCCNC(=N)N)C(=O)N[C@@H](Cc1c[nH]cn1)C(=O)N[C@@H](Cc1ccc(O)cc1)C(=O)N[C@@H](Cc1ccc(O)cc1)C(=O)N[C@@H](CC(N)=O)C(=O)N[C@@H](Cc1c[nH]c2ccccc12)C(=O)N[C@@H](CC(C)C)C(=O)N[C@H](C(=O)N[C@@H](CCCNC(=N)N)C(=O)N[C@@H](CCC(N)=O)C(=O)N[C@@H](CCCNC(=N)N)C(=O)N[C@@H](Cc1ccc(O)cc1)C(N)=O)[C@@H](C)O)C(C)C [Compound 89, N{alpha-4}-(3-methylbutanoyl)-N{epsilon-7}-[2-(2-{2-[2-(2-{2-[(4S)-4-carboxy-4-(17-carboxyheptadecanamido)butanamido]ethoxy}ethoxy)acetamido]ethoxy}ethoxy)acetamido]-[4A,7K,9E,11E,13E,18Q,22V,28Y,30W,31L]hPYY (4-36)]",9.61
2,"CC(C)CC(=O)N[C@@H](C)C(=O)N1CCC[C@H]1C(=O)N[C@@H](CCC(=O)O)C(=O)N[C@@H](CCCCNC(=O)COCCOCCNC(=O)COCCOCCNC(=O)CC[C@H](NC(=O)CCCCCCCCCCCCCCCCC(=O)O)C(=O)O)C(=O)N1CCC[C@H]1C(=O)N[C@@H](CCC(=O)O)C(=O)N[C@@H](CCC(=O)O)C(=O)N[C@@H](CC(=O)O)C(=O)N[C@H](C(=O)N[C@@H](CO)C(=O)N1CCC[C@H]1C(=O)N[C@@H](CCC(=O)O)C(=O)N[C@@H](CCC(=O)O)C(=O)N[C@@H](CC(C)C)C(=O)N[C@@H](CCC(N)=O)C(=O)N[C@@H](CCCNC(=N)N)C(=O)N[C@@H](Cc1ccc(O)cc1)C(=O)N[C@@H](Cc1ccc(O)cc1)C(=O)N[C@H](C(=O)N[C@@H](CO)C(=O)N[C@@H](CC(C)C)C(=O)N[C@@H](CCCNC(=N)N)C(=O)N[C@@H](Cc1c[nH]cn1)C(=O)N[C@@H](Cc1ccc(O)cc1)C(=O)N[C@@H](Cc1ccc(O)cc1)C(=O)N[C@@H](CC(N)=O)C(=O)N[C@@H](Cc1c[nH]c2ccccc12)C(=O)N[C@@H](CC(C)C)C(=O)N[C@H](C(=O)N[C@@H](CCCNC(=N)N)C(=O)N[C@@H](CCC(N)=O)C(=O)N[C@@H](CCCNC(=N)N)C(=O)N[C@@H](Cc1ccc(O)cc1)C(N)=O)[C@@H](C)O)C(C)C)[C@@H](C)O [Compound 92, N{alpha-4}-(3-methylbutanoyl)-N{epsilon-7}-[2-(2-{2-[2-(2-{2-[(4S)-4-carboxy-4-(17-carboxyheptadecanamido)butanamido]ethoxy}ethoxy)acetamido]ethoxy}ethoxy)acetamido]-[4A,7K,9E,12T,18Q,22V,28Y,30W,31L]hPYY (4-36)]",1.57
3,"CC(C)CC(=O)N[C@@H](C)C(=O)N1CCC[C@H]1C(=O)N[C@@H](CCC(=O)O)C(=O)N[C@@H](CCCCNC(=O)COCCOCCNC(=O)COCCOCCNC(=O)CC[C@H](NC(=O)CCCCCCCCCCCCCCCCC(=O)O)C(=O)O)C(=O)N1CCC[C@H]1C(=O)N[C@@H](CCC(=O)O)C(=O)N[C@@H](CCC(=O)O)C(=O)N[C@@H](CC(=O)O)C(=O)N[C@@H](C)C(=O)N[C@@H](CO)C(=O)N1CCC[C@H]1C(=O)N[C@@H](CCC(=O)O)C(=O)N[C@@H](CCC(=O)O)C(=O)N[C@H](C(=O)N[C@@H](CCC(N)=O)C(=O)N[C@@H](CCCNC(=N)N)C(=O)N[C@@H](Cc1ccc(O)cc1)C(=O)N[C@@H](Cc1ccc(O)cc1)C(=O)N[C@H](C(=O)N[C@@H](CCC(=O)O)C(=O)N[C@@H](CC(C)C)C(=O)N[C@@H](CCCNC(=N)N)C(=O)N[C@@H](Cc1c[nH]cn1)C(=O)N[C@@H](Cc1ccc(O)cc1)C(=O)N[C@@H](Cc1ccc(O)cc1)C(=O)N[C@@H](CC(N)=O)C(=O)N[C@@H](Cc1c[nH]c2ccccc12)C(=O)N[C@@H](CC(C)C)C(=O)N[C@H](C(=O)N[C@@H](CCCNC(=N)N)C(=O)N[C@@H](CCC(N)=O)C(=O)N[C@@H](CCCNC(=N)N)C(=O)N[C@@H](Cc1ccc(O)cc1)C(N)=O)[C@@H](C)O)C(C)C)[C@@H](C)O [Compound 94, N{alpha-4}-(3-methylbutanoyl)-N{epsilon-7}-[2-(2-{2-[2-(2-{2-[(4S)-4-carboxy-4-(17-carboxyheptadecanamido)butanamido]ethoxy}ethoxy)acetamido]ethoxy}ethoxy)acetamido]-[4A,7K,9E,17T,18Q,22V,23E,28Y,30W,31L]hPYY (4-36)]",2.07
4,"CC[C@H](C)[C@H](NC(=O)[C@H](CCC(=O)O)NC(=O)[C@H](C)NC(=O)[C@@H]1CCCN1C(=O)[C@H](CO)NC(=O)[C@H](C)NC(=O)[C@H](CC(=O)O)NC(=O)[C@H](CCC(=O)O)NC(=O)[C@H](CCC(=O)O)NC(=O)[C@@H]1CCCN1C(=O)[C@H](CCCCNC(=O)COCCOCCNC(=O)COCCOCCNC(=O)CC[C@H](NC(=O)CCCCCCCCCCCCCCCCC(=O)O)C(=O)O)NC(=O)[C@H](CCC(=O)O)NC(=O)[C@@H]1CCCN1C(=O)[C@H](C)NC(=O)CC(C)C)C(=O)N[C@@H](CCC(N)=O)C(=O)N[C@@H](CCCNC(=N)N)C(=O)N[C@@H](Cc1ccc(O)cc1)C(=O)N[C@@H](Cc1ccc(O)cc1)C(=O)N[C@H](C(=O)N[C@@H](CO)C(=O)N[C@@H](CC(C)C)C(=O)N[C@@H](CCCNC(=N)N)C(=O)N[C@@H](Cc1c[nH]cn1)C(=O)N[C@@H](Cc1ccc(O)cc1)C(=O)N[C@@H](Cc1ccc(O)cc1)C(=O)N[C@@H](CC(N)=O)C(=O)N[C@@H](Cc1c[nH]c2ccccc12)C(=O)N[C@@H](CC(C)C)C(=O)N[C@H](C(=O)N[C@@H](CCCNC(=N)N)C(=O)N[C@@H](CCC(N)=O)C(=O)N[C@@H](CCCNC(=N)N)C(=O)N[C@@H](Cc1ccc(O)cc1)C(N)=O)[C@@H](C)O)C(C)C [Compound 95, N{alpha-4}-(3-methylbutanoyl)-N{epsilon-7}-[2-(2-{2-[2-(2-{2-[(4S)-4-carboxy-4-(17-carboxyheptadecanamido)butanamido]ethoxy}ethoxy)acetamido]ethoxy}ethoxy)acetamido]-[4A,7K,9E,15A,17I,18Q,22V,28Y,30W,31L]hPYY (4-36)]",0.66
5,"CC(C)CC(=O)N[C@@H](C)C(=O)N1CCC[C@H]1C(=O)N[C@@H](C)C(=O)N[C@@H](CCCCNC(=O)COCCOCCNC(=O)COCCOCCNC(=O)CC[C@H](NC(=O)CCCCCCCCCCCCCCCCC(=O)O)C(=O)O)C(=O)N1CCC[C@H]1C(=O)N1CCC[C@H]1C(=O)N[C@@H](CCC(=O)O)C(=O)N[C@@H](CC(=O)O)C(=O)N[C@@H](C)C(=O)N[C@@H](CO)C(=O)N1CCC[C@H]1C(=O)N[C@@H](CCC(=O)O)C(=O)N[C@@H](CCC(=O)O)C(=O)N[C@@H](CC(C)C)C(=O)N[C@@H](CCC(N)=O)C(=O)N[C@@H](CCCNC(=N)N)C(=O)N[C@@H](Cc1ccc(O)cc1)C(=O)N[C@@H](Cc1ccc(O)cc1)C(=O)N[C@H](C(=O)N[C@@H](CO)C(=O)N[C@@H](CC(C)C)C(=O)N[C@@H](CCCNC(=N)N)C(=O)N[C@@H](Cc1c[nH]cn1)C(=O)N[C@@H](Cc1ccc(O)cc1)C(=O)N[C@@H](Cc1ccc(O)cc1)C(=O)N[C@@H](CC(N)=O)C(=O)N[C@@H](Cc1c[nH]c2ccccc12)C(=O)N[C@@H](CC(C)C)C(=O)N[C@H](C(=O)N[C@@H](CCCNC(=N)N)C(=O)N[C@@H](CCC(N)=O)C(=O)N[C@@H](CCCNC(=N)N)C(=O)N[C@@H](Cc1ccc(O)cc1)C(N)=O)[C@@H](C)O)C(C)C [Compound 100, N{alpha-4}-(3-methylbutanoyl)-N{epsilon-7}-[2-(2-{2-[2-(2-{2-[(4S)-4-carboxy-4-(17-carboxyheptadecanamido)butanamido]ethoxy}ethoxy)acetamido]ethoxy}ethoxy)acetamido]-[4A,6A,7K,9P,18Q,22V,28Y,30W,31L]hPYY (4-36)]",0.44
6,"CC(C)CC(=O)N[C@@H](C)C(=O)N1CCC[C@H]1C(=O)N[C@@H](CCC(=O)O)C(=O)N[C@@H](CCCCNC(=O)COCCOCCNC(=O)COCCOCCNC(=O)CC[C@H](NC(=O)CCCCCCCCCCCCCCCCC(=O)O)C(=O)O)C(=O)N1CCC[C@H]1C(=O)N[C@@H](CCC(=O)O)C(=O)N[C@@H](CCC(=O)O)C(=O)N[C@@H](CC(=O)O)C(=O)N[C@@H](C)C(=O)N[C@@H](CO)C(=O)N1CCC[C@H]1C(=O)N[C@@H](CCC(=O)O)C(=O)N[C@@H](CCC(=O)O)C(=O)N[C@@H](CC(C)C)C(=O)N[C@@H](CCC(N)=O)C(=O)N[C@@H](CCCNC(=N)N)C(=O)N[C@@H](Cc1ccc(O)cc1)C(=O)N[C@@H](Cc1ccc(O)cc1)C(=O)N[C@H](C(=O)N[C@H](C(=O)N[C@@H](CC(C)C)C(=O)N[C@@H](CCCNC(=N)N)C(=O)N[C@@H](Cc1c[nH]cn1)C(=O)N[C@@H](Cc1ccc(O)cc1)C(=O)N[C@@H](Cc1ccc(O)cc1)C(=O)N[C@@H](CC(N)=O)C(=O)N[C@@H](Cc1c[nH]c2ccccc12)C(=O)N[C@@H](CC(C)C)C(=O)N[C@H](C(=O)N[C@@H](CCCNC(=N)N)C(=O)N[C@@H](CCC(N)=O)C(=O)N[C@@H](CCCNC(=N)N)C(=O)N[C@@H](Cc1ccc(O)cc1)C(N)=O)[C@@H](C)O)[C@@H](C)O)C(C)C [Compound 102, N{alpha-4}-(3-methylbutanoyl)-N{epsilon-7}-[2-(2-{2-[2-(2-{2-[(4S)-4-carboxy-4-(17-carboxyheptadecanamido)butanamido]ethoxy}ethoxy)acetamido]ethoxy}ethoxy)acetamido]-[4A,7K,9E,18Q,22V,23T,28Y,30W,31L]hPYY (4-36)]",0.87
